Key:
mouse Mdr1a = mouse Mdr1a (Mus musculus, UniProt P21447); assay: Gentest ABC transporter membrane ATPase assay; settings: 0–300 μM, 30 min, 37°C
Description: (§1) The Gentest ATPase assay (Corning, Germany) was used to investigate the binding kinetics of the panel of P-gp substrates against membranes constituted to display human MDR1, mouse Mdr1a, mouse Mdr1b and mouse Bcrp. The assays measure the accumulation of inorganic phosphate (absorbance at 800 nm) produced in the breakdown of ATP to ADP. […] The assays were used in accordance with the manufacturer’s protocol to calculate (GraphPad Prism) the Michaelis-Menten parameters Km and VMAX. For the assay test compounds were serially diluted to produce an assay concentration range of 0–300 μM with the kinetics of ATP turnover examined over 30 min at 37°C.

[1] = Multi-lamellar liposome vesicle (MLV) partitioning; assay type: physicochemical; settings: (C0−CS)/C0, 1 μg/mL, 4 h, 37°C, PBS pH 7.4
Description: MLVs were formed as previously described ([20]). Briefly, solutions of 8 mg phosphatidylcholine and 2 mg phosphatidylglycerol in 10 mL chloroform were completely dried to a lipid film (rotation under vacuum).
These preparations were then incubated at 37°C for 4 h under shaking conditions to allow equilibration of compound between the lipid and aqueous fractions. The MLVs were then pelleted and 100 μL of supernatant removed for analysis by radiometric or LC-MS/MS methods as described above. Partitioning into the MLVs was determined according to Eq. 3:3 MLVpartitioning=C0−CS/C0
where C0 is the initial compound concentration (1 μg/mL) and CS is the compound concentration present in the aqueous supernatant at the end of 4 h incubation.

human MDR1 = human MDR1 (Homo sapiens, UniProt P08183); assay: Gentest ABC transporter membrane ATPase assay; settings: ATPase, 0–300 μM, 30 min, 37°C
Chain of human MDR1 (P08183 whole entry): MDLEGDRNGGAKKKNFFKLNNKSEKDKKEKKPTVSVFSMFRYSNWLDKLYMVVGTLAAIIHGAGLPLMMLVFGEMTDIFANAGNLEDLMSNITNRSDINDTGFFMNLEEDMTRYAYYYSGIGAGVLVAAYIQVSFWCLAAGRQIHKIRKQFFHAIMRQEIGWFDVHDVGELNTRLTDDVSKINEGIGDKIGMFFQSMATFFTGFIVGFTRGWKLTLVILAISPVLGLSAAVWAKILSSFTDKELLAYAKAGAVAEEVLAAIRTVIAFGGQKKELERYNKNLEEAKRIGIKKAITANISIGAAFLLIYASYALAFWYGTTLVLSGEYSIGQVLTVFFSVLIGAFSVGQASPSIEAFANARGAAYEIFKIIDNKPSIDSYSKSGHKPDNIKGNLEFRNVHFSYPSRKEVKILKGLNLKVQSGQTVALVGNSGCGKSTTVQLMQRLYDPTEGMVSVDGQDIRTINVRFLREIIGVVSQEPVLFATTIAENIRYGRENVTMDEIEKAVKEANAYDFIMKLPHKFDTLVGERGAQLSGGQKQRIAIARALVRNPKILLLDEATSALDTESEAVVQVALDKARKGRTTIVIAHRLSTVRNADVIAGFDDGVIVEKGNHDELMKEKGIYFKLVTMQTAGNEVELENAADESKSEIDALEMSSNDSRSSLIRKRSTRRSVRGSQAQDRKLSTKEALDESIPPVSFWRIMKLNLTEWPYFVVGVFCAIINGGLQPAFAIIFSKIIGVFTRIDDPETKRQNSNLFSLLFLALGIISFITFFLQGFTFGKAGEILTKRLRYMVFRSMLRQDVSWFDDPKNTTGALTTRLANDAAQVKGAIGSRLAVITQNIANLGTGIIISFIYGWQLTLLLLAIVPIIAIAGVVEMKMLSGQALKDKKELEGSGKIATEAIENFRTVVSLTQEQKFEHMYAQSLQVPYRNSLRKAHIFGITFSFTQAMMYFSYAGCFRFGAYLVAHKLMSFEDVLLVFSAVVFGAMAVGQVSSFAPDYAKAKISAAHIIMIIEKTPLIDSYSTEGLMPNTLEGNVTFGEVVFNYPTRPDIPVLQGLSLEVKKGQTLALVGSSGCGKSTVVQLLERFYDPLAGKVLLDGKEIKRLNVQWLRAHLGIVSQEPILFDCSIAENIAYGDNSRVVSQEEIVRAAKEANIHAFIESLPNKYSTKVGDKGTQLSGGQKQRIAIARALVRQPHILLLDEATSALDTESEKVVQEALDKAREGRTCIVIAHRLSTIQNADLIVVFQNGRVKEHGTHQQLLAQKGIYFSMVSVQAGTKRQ
Description: as §1

human MDR1 (P-gp) = human MDR1 (P-gp) (Homo sapiens, UniProt P08183); assay: Gentest ABC transporter membrane ATPase assay; settings: human, membranes displaying human MDR1 (Gentest ATPase assay)
Chain of human MDR1 (P-gp) (P08183 whole entry, the tested form may be a part): as the sequence (P08183 whole entry) above
Description: as §1

[2] = system: P-glycoprotein (Mdr1a/Mdr1b) in isolated perfused mouse lung; assay: Isolated perfused mouse lung (IPML) airway-to-perfusate absorption, Mdr1a/1b (+/+) vs (−/−); settings: male, mouse, 50 μM
Description: The atria and the lower half of the heart were cut to allow the free flow of perfusate. The lungs were removed and suspended vertically in a custom water-jacketed glass thorax (Radleys, Essex, UK) maintained at 37°C.
Following dosing of compound into the IPML airways serial samples (250 μL) were collected for bioanalysis from the 10 mL recirculating perfusate reservoir. Each sample collected from the reservoir was replaced with an equal volume of fresh warmed, oxygenated perfusate. Upon termination of the experiment the dose solutions, apparatus washings and perfusate samples were collected for mass balance calculations enabling determination of the actual total dose delivered to the lungs.
Radioactive compounds were directly analysed by liquid scintillation counting. Volumes of 50 μL perfusate samples were mixed with 3 mL of Scintisafe 3 Liquid Scintillation Fluid (Fisher, UK) and transferred to vials for scintillation counting using a TriCarb 2900TR (Packard Bioscience, USA).
After accounting for the mass of compound removed at each sample point, plots of the cumulative ‘%deposited dose absorbed’ versus ‘time’ were generated and subject to nonlinear regression analysis according to a first-order absorption one-compartment accumulating model (Eq. 1) to generate estimates for the extent (F) and rate (Ka) of absorption from the IPML airways to the recirculating perfusate.
The data was also subject to standard non-compartmental analysis, specifically Area Under Curve (AUC0–30 min) of ‘%deposited dose absorbed’ versus ‘time’ (units: %Dose.min) and reflecting for the exclusively accumulating perfusate ‘compartment’ the exposure arising from the IPML absorption process alone.

mouse Bcrp = target: T1, mouse Bcrp (Mus musculus, UniProt Q7TMS5); assay: Gentest ABC transporter membrane ATPase assay; assay type: biochemical; settings: ATPase; 0 indicates no enzyme turnover
T1 construct: purchased Corning (Gentest), Germany
T1 sequence (Q7TMS5 1-657): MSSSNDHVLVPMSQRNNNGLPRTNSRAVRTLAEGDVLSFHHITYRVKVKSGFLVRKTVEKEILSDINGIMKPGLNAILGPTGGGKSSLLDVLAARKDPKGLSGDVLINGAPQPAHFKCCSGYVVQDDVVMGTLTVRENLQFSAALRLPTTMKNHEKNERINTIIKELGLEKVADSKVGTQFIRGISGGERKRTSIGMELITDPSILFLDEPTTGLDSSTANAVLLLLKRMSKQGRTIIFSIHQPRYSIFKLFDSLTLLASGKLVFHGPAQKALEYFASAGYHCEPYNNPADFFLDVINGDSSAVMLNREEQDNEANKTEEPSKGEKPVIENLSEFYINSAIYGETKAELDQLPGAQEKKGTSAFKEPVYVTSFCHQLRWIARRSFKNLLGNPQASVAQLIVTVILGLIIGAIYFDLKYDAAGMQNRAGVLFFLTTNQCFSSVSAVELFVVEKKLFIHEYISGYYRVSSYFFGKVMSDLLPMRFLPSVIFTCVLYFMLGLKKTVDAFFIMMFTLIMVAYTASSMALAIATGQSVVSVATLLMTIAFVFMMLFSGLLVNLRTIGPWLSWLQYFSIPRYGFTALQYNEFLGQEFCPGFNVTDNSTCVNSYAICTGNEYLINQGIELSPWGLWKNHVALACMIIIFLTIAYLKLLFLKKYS
Description: as §1

[3] = Immobilised artificial membrane (IAM) chromatography; assay type: physicochemical; settings: extrapolated to 100% water; mean of four experiments
Description: IAM chromatography provided an experimental measure of substrate membrane affinity and phospholipid interaction. The IAM column (Regis Technologies Inc., Hichrom, Reading, UK; IAM.PC.DD2 10 cm x 4.6 mm ID column) was run under isocratic eluting conditions with the retention of all compounds determined under three mobile phase conditions: 10%, 20% and 30% acetonitrile in water, and from which the theoretical retention time in 100% water was calculated by linear regression. LogK^IAM values were calculated according to Eq. 2:2 LogK^IAM=LogTr−T0/T0
where Tr and T0 are respectively the retention times of the substrate in 100% water and of the unretained compound, i.e. eluting within the solvent front of 75 s in all experiments.

mouse Mdr1b = mouse Mdr1b (Mus musculus, UniProt P06795); assay: Gentest ABC transporter membrane ATPase assay; settings: 0–300 μM, 30 min, 37°C
Chain of mouse Mdr1b (P06795 whole entry): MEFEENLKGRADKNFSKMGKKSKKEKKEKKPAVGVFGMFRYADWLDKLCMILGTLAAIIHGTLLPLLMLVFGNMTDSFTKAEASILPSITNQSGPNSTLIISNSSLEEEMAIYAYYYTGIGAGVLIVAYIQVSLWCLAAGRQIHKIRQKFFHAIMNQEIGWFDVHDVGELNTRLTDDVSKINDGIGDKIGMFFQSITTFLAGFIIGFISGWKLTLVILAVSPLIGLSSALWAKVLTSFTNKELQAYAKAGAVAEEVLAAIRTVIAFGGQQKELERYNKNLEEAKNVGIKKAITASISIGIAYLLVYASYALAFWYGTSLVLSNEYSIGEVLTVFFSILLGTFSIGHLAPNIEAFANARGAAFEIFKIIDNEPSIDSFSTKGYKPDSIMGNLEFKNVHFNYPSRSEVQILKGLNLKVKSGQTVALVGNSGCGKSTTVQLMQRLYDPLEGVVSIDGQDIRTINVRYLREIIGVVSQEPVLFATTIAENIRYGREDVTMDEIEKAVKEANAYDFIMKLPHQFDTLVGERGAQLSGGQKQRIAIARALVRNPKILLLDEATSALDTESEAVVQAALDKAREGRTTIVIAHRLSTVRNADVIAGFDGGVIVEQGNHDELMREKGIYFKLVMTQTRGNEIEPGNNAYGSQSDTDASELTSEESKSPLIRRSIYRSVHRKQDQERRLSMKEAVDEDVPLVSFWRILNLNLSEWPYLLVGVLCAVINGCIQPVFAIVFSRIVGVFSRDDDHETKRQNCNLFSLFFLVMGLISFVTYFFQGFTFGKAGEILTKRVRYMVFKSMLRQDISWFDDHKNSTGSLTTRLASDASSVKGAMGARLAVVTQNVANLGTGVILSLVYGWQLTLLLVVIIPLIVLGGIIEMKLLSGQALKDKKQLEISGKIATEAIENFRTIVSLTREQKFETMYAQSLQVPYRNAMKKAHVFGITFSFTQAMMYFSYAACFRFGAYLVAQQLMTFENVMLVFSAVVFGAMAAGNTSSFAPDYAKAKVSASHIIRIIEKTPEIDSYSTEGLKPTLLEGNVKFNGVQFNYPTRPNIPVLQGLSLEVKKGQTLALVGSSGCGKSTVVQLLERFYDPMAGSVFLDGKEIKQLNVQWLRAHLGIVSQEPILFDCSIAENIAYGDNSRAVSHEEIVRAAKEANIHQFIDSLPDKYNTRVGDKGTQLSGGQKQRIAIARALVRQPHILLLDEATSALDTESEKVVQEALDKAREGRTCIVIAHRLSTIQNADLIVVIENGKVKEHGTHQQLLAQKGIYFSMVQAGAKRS
Description: as §1

[4] = system: P-gp (Mdr1a/1b) in mouse intestinal segments; assay: Ussing chamber intestinal permeability, ileal segments Mdr1a/1b (+/+) vs (−/−); settings: mucosal to serosal, 50 μM, 180 min
Description: The bathing fluid for both mucosal and serosal surfaces (3 mL volume in each chamber) comprised oxygenated Krebs-Henseleit buffer maintained at 37°C (heating block) under stirred conditions (gas flow manifold). […] Any intestinal segments presenting an initial TEER of lower than 80 Ω.cm^2 were discarded prior to the experiment, likewise any segments whose TEER decreased by more than 10% over the course of the experiment were excluded.
Thereafter permeability coefficients were determined according to Eq. 4:4 ρ=dM/dt/A^∗C0

P-gp = system: P-gp; parameters: method as in PMID 23670704; settings: IPRL and IPML models; cited from earlier work

Chain of mouse Mdr1a (P21447 whole entry): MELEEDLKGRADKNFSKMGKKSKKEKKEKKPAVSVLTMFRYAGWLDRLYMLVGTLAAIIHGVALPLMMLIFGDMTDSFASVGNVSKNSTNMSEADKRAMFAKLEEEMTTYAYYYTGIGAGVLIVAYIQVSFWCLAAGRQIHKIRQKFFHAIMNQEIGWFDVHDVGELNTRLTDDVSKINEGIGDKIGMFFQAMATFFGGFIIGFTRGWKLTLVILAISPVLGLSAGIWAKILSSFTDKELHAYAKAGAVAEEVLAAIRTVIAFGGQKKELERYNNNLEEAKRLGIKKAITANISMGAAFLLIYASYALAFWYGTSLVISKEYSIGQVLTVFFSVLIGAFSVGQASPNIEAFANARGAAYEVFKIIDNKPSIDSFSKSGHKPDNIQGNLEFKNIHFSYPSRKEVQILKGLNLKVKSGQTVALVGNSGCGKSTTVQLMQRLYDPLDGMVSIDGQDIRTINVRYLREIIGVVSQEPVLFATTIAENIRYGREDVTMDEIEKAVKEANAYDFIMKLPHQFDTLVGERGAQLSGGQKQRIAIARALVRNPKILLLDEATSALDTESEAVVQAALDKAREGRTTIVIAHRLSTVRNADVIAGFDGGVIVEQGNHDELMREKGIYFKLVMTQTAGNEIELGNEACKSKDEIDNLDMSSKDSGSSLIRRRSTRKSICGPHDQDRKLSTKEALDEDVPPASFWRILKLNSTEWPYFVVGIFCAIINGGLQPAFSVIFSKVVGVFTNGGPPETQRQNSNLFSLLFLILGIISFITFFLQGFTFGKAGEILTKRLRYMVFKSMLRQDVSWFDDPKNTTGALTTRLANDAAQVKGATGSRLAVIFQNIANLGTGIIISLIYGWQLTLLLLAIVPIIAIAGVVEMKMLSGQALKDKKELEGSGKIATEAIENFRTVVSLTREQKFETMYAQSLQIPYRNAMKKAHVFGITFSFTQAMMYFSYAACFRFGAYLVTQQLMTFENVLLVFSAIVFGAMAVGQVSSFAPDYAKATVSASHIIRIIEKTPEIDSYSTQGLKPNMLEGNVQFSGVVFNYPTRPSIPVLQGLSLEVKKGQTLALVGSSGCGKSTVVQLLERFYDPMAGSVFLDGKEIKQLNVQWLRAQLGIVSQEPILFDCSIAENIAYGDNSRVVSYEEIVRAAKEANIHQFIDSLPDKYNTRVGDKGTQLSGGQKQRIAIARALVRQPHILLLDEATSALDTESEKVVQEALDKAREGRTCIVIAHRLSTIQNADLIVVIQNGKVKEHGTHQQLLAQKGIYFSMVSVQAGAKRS

CC(C)(C)NC(=O)[C@@H]1C[C@@H]2CCCC[C@@H]2CN1C[C@@H](O)[C@H](Cc1ccccc1)NC(=O)[C@H](CC(N)=O)NC(=O)c1ccc2ccccc2n1 [Saquinavir, saquinavir]
Km (mouse Mdr1a): 31.7 µM | Vmax (mouse Mdr1a): 39.5 µM/min | MLV Partitioning [1]: 0.45 | Vmax (human MDR1): 41.3 µM/min | Km at 30 min (human MDR1 (P-gp)): 24.9 µM | Mdr1a/1b (+/+) ‘F’ estimate by model fit [95% CI) [2]: 25.5 [11.4 to 39.6] | Mdr1a/1b (-/-) ‘F’ estimate by model fit [95% CI) [2]: 29.1 [19.5 to 38.6] | Mdr1a/1b (+/+) % Deposited Dose absorbed ([2]; 30 min): 20.0% | Mdr1a/1b (-/-) % Deposited Dose absorbed ([2]; 30 min): 20.0% | Vmax (mouse Bcrp): 0 µM/min | LogK^IAM [3]: 1.24 | Km (mouse Mdr1b): 32 µM | Vmax (mouse Mdr1b): 47.1 µM/min | Mdr1a/1b (−/−) Permeability coefficient ([4]; P-gp knockout intestinal segments): 15.73 ± 3.52 cm/s (x10^−6) | Mdr1a/1b (+/+) Permeability coefficient ([4]; wild-type intestinal segments): 1.56 ± 0.69 cm/s (x10^−6) | effect of P-gp inhibition (GF120918) upon pulmonary absorption (P-gp): unaffected
